The record followed here is PubChem BioAssay (NCI).

Among the test systems are ACHN renal; NCI-H460 lung; 786-0 renal; OVCAR-5 ovarian; UACC-257 melanoma; LOX IMVI melanoma; SK-OV-3 ovarian; SF-539 CNS; OVCAR-3 ovarian; M14 melanoma.
Holding throughout (test): NCI tumour cell line growth inhibition, 48 h

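Protocol summary: plate cells (96-well), add compound at 5 concentrations, incubate 48 h, interpolate endpoints linearly. GI50 = concentration required for 50% inhibition of growth. At the TGI there is no net growth.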 Bounds are passed on as bounds.

As for `CSC(C1c2ccccc2N(C)C2=NC(=O)N(C)C(=O)C21Cl)S(=O)(=O)c1ccc(C)cc1` (stereo not given), the TGI is above 100 µM with ACHN renal; above 100 µM in the experiment on NCI-H460 lung; 33.2 µM in the experiment with 786-0 renal; above 100 µM in the experiment on OVCAR-5 ovarian; above 100 µM in the experiment with UACC-257 melanoma; above 100 µM in the experiment with LOX IMVI melanoma. Besides, the TGI in the experiment with SK-OV-3 ovarian was above 100 µM; with SF-539 CNS, above 100 µM; in the experiment with OVCAR-3 ovarian, 43.3 µM.

`OCCCN=NNc1ccc(-c2nc3ccccc3[nH]2)cc1`: the GI50 with ACHN renal was 24.4 µM; in the experiment with NCI-H460 lung it was 4.65 µM; with 786-0 renal, 17 µM; with OVCAR-5 ovarian, above 100 µM; in the experiment on UACC-257 melanoma, 10.4 µM; with M14 melanoma it was 39.9 µM. Moreover, the GI50 in the experiment with SK-OV-3 ovarian is 24.2 µM; in the experiment on SF-539 CNS it was 5.97 µM; with OVCAR-3 ovarian it was 2.31 µM. Also, the TGI in the experiment with ACHN renal is 64 µM; in the experiment on NCI-H460 lung it was above 100 µM; in the experiment on 786-0 renal, 46.7 µM; in the experiment on OVCAR-5 ovarian it was above 100 µM; in the experiment on UACC-257 melanoma, above 100 µM; with M14 melanoma, 69.4 µM. Moreover, the values for the TGI with SK-OV-3 ovarian, with SF-539 CNS and in the experiment on OVCAR-3 ovarian were 73 µM, 28.4 µM and 5.13 µM, respectively.

Consider `CSc1cnn(CCC#N)c(=O)n1`, for which the TGI in the experiment on ACHN renal, in the experiment with 786-0 renal, in the experiment on OVCAR-5 ovarian, in the experiment on UACC-257 melanoma, in the experiment on M14 melanoma and in the experiment on LOX IMVI melanoma was above 100 µM in each case. Moreover, the TGI with SK-OV-3 ovarian and with SF-539 CNS was above 100 µM throughout.

Consider `COc1ccc(-c2ccc(/C=N/n3c(COc4ccccc4Cl)nn(CN4CCN(C)CC4)c3=S)o2)c([N+](=O)[O-])c1`, for which the GI50 with ACHN renal is 23.1 µM; in the experiment with NCI-H460 lung, 14.7 µM; in the experiment with 786-0 renal, 17.4 µM; in the experiment with OVCAR-5 ovarian, 21.6 µM; in the experiment with M14 melanoma, 17.7 µM; in the experiment on SK-OV-3 ovarian, 30.6 µM. Further, the GI50 with SF-539 CNS is 19.7 µM. Further, the TGI in the experiment on ACHN renal was 50.1 µM; in the experiment with NCI-H460 lung it was 37.6 µM; in the experiment with 786-0 renal it was 39.3 µM; with OVCAR-5 ovarian, 46.6 µM; in the experiment on M14 melanoma, 34.2 µM; in the experiment on SK-OV-3 ovarian it was 83.8 µM. In addition, the TGI in the experiment with SF-539 CNS turned out to be 39.2 µM.

With `Cc1ccc(C2NC(=S)NC3=C2CCOc2c3ccc3ccccc23)cc1` (stereo not given), the GI50 in the experiment with ACHN renal was 44 µM; in the experiment with NCI-H460 lung it was 64.8 µM; in the experiment on 786-0 renal, above 100 µM; with OVCAR-5 ovarian, above 100 µM; in the experiment on UACC-257 melanoma, above 100 µM; with M14 melanoma it was 79 µM. Further, the GI50 in the experiment with SK-OV-3 ovarian and with SF-539 CNS was above 100 µM each time. For the same compound, the TGI in the experiment on ACHN renal, with NCI-H460 lung, in the experiment on 786-0 renal, with OVCAR-5 ovarian, in the experiment with UACC-257 melanoma and in the experiment with M14 melanoma was above 100 µM in each case. Also, the TGI in the experiment with SK-OV-3 ovarian and in the experiment on SF-539 CNS was above 100 µM in each case.

Consider `COc1cc2c(cc1OC)-c1cc3cc(OC)c(OC)cc3n1CC2`, for which the TGI is 85.9 µM in the experiment with ACHN renal; above 100 µM with NCI-H460 lung; 66.6 µM in the experiment with 786-0 renal; above 100 µM in the experiment on OVCAR-5 ovarian; above 100 µM in the experiment on UACC-257 melanoma; above 100 µM with M14 melanoma. The TGI in the experiment with SK-OV-3 ovarian and in the experiment with OVCAR-3 ovarian was above 100 µM throughout.

Turning to `CCN(CC)CCCNc1cccc2c(SCc3ccccc3)ccnc12`, the GI50 in the experiment with ACHN renal was 1.81 µM; in the experiment with NCI-H460 lung, 1.7 µM; with 786-0 renal it was 1.56 µM; in the experiment on OVCAR-5 ovarian, 2 µM; in the experiment with UACC-257 melanoma, 2.09 µM; with M14 melanoma, 1.96 µM. Also, the GI50 was 2.02 µM in the experiment on SK-OV-3 ovarian, 1.63 µM with SF-539 CNS and 1.75 µM with OVCAR-3 ovarian. The TGI in the experiment with ACHN renal was 3.27 µM; in the experiment on NCI-H460 lung, 3.45 µM; in the experiment on 786-0 renal, 2.99 µM; with OVCAR-5 ovarian it was 3.76 µM; in the experiment on UACC-257 melanoma it was 3.85 µM; in the experiment with M14 melanoma, 3.6 µM. Further, the TGI with SK-OV-3 ovarian came to 4.51 µM; in the experiment on SF-539 CNS, 3.13 µM; in the experiment with OVCAR-3 ovarian it was 3.43 µM.

For the compound `CCCCCCCC/C=C/CCCCCCCCC1=NCCN1CCO`, the GI50 is 2.6 µM with ACHN renal; 1.81 µM in the experiment on NCI-H460 lung; 5.49 µM in the experiment with 786-0 renal; 10.8 µM in the experiment on OVCAR-5 ovarian; 11.8 µM in the experiment on UACC-257 melanoma; 2.16 µM in the experiment on M14 melanoma. The results for the GI50 in the experiment with SK-OV-3 ovarian, in the experiment on SF-539 CNS and in the experiment on OVCAR-3 ovarian were 16.1 µM, 1.64 µM and 11.5 µM, respectively. Besides, the TGI with ACHN renal was 8.39 µM; with NCI-H460 lung it was 3.32 µM; in the experiment with 786-0 renal, 28 µM; in the experiment with OVCAR-5 ovarian, 24 µM; in the experiment with UACC-257 melanoma, 25 µM; with M14 melanoma, 5.11 µM. For the same compound, the TGI came to 33.6 µM in the experiment with SK-OV-3 ovarian, 3.02 µM with SF-539 CNS and 25.7 µM in the experiment with OVCAR-3 ovarian.

On to `CN(C)c1ccc(C(=C2C=CC(=[N+](C)C)C=C2)c2ccc(N(C)C)cc2)cc1` (tested in a mixture with another compound), for which the GI50 in the experiment with ACHN renal was 0.233 µM; in the experiment with 786-0 renal, 0.104 µM; in the experiment with OVCAR-5 ovarian it was 0.559 µM; in the experiment on UACC-257 melanoma, 0.211 µM; in the experiment on M14 melanoma, 0.088 µM; in the experiment with SF-539 CNS it was 0.0643 µM. In addition, the GI50 in the experiment with OVCAR-3 ovarian is 0.133 µM. The TGI in the experiment with ACHN renal worked out at 1.48 µM; with 786-0 renal it was 1.02 µM; in the experiment on OVCAR-5 ovarian, 1.77 µM; in the experiment with UACC-257 melanoma, 1.3 µM; in the experiment with SK-OV-3 ovarian it was 0.933 µM; with SF-539 CNS, 0.748 µM. The compound also displayed a TGI with OVCAR-3 ovarian of 0.949 µM.

Turning to `COc1ccc(C(O)/C(=N\NC(N)=S)c2nc3ccc([N+](=O)[O-])cc3[nH]c2=O)cc1OC` (stereo not given), the TGI with ACHN renal, in the experiment with NCI-H460 lung, in the experiment with 786-0 renal, in the experiment with OVCAR-5 ovarian, with UACC-257 melanoma and in the experiment on M14 melanoma was above 100 µM throughout. Besides, the TGI in the experiment on LOX IMVI melanoma and in the experiment on SK-OV-3 ovarian was above 100 µM each time.

As for `CCSCC(N)C(=O)O` (stereo not given), the TGI in the experiment with ACHN renal, in the experiment on NCI-H460 lung, in the experiment on 786-0 renal, in the experiment on OVCAR-5 ovarian, in the experiment on UACC-257 melanoma and in the experiment on M14 melanoma was above 100 µM in each case. In addition, the TGI in the experiment on LOX IMVI melanoma, with SK-OV-3 ovarian and in the experiment on OVCAR-3 ovarian was above 100 µM each time.
